Assay results as given in patent US12479844B2, “Ion channel modulators” (Praxis Precision Medicines, Inc., priority 2018, dated 2025).

The molecules below were run against T1, human NaV1.6 (hNaV1.6) (Homo sapiens, UniProt Q9UQD0) (assay: Modulation of late sodium current (INaL), PatchXpress high throughput electrophysiology). Details: HEK293, HEK-293 cells expressing recombinant human NaV1.6, late current evoked by 300 nM ATX-II, read-out: NaV 1.6 Assay Data (percent inhibition of INaL at hNaV1.6).
T1 construct: expressed in transfected cells; host or cells: HEK-293
Type: cell-based
Method: Functional characterization of exemplary compounds to modulate INaL expressed by the NaV1.6 voltage-gated sodium channel was accomplished using the PatchXpress™ high throughput electrophysiology platform (Molecular Devices, Sunnyvale, CA). HEK-293 cells expressing recombinant, human NaV1.6 (hNaV1.6) were grown in DMEM/high-glucose Dulbecco's modified, 10% FBS, 2 mM sodium pyruvate, 10 mM HEPES and 400 μg/mL G418. Cells were grown to 50%-80% confluency prior to harvesting. Trypsinized cells were washed, allowed to recover for 1 hour and then resuspended in extracellular recording solution at a concentration of 1×10^6 cells/ml. The onboard liquid handling facility of the PatchXpress was used for dispensing cells and applying test compounds. NaV late currents were evoked by the application of 300 nM ATX-II. INaL was evoked by depolarizing pulses to 0 mV for 200 ms from a non-inactivating holding potential (e.g., −120 mV) at a frequency of 0.1 Hz. INaL amplitude and stability were determined by analyzing the mean current amplitude over the final 20 ms of thetest pulse. Following steady state block with exemplary compounds (e.g., as described herein), a Na+ free solution containing an impermeant cation (e.g., Choline or NDMG) was added to confirm the identify of the sodium current. Percent steady-state inhibition of INaL was calculated as: [(INaL_compound)/(INaL_control)]*100, where INaL_compound and INaL_control represent INaL recorded in the presence or absence of compound, respectively.

T1 sequence (Q9UQD0 whole entry): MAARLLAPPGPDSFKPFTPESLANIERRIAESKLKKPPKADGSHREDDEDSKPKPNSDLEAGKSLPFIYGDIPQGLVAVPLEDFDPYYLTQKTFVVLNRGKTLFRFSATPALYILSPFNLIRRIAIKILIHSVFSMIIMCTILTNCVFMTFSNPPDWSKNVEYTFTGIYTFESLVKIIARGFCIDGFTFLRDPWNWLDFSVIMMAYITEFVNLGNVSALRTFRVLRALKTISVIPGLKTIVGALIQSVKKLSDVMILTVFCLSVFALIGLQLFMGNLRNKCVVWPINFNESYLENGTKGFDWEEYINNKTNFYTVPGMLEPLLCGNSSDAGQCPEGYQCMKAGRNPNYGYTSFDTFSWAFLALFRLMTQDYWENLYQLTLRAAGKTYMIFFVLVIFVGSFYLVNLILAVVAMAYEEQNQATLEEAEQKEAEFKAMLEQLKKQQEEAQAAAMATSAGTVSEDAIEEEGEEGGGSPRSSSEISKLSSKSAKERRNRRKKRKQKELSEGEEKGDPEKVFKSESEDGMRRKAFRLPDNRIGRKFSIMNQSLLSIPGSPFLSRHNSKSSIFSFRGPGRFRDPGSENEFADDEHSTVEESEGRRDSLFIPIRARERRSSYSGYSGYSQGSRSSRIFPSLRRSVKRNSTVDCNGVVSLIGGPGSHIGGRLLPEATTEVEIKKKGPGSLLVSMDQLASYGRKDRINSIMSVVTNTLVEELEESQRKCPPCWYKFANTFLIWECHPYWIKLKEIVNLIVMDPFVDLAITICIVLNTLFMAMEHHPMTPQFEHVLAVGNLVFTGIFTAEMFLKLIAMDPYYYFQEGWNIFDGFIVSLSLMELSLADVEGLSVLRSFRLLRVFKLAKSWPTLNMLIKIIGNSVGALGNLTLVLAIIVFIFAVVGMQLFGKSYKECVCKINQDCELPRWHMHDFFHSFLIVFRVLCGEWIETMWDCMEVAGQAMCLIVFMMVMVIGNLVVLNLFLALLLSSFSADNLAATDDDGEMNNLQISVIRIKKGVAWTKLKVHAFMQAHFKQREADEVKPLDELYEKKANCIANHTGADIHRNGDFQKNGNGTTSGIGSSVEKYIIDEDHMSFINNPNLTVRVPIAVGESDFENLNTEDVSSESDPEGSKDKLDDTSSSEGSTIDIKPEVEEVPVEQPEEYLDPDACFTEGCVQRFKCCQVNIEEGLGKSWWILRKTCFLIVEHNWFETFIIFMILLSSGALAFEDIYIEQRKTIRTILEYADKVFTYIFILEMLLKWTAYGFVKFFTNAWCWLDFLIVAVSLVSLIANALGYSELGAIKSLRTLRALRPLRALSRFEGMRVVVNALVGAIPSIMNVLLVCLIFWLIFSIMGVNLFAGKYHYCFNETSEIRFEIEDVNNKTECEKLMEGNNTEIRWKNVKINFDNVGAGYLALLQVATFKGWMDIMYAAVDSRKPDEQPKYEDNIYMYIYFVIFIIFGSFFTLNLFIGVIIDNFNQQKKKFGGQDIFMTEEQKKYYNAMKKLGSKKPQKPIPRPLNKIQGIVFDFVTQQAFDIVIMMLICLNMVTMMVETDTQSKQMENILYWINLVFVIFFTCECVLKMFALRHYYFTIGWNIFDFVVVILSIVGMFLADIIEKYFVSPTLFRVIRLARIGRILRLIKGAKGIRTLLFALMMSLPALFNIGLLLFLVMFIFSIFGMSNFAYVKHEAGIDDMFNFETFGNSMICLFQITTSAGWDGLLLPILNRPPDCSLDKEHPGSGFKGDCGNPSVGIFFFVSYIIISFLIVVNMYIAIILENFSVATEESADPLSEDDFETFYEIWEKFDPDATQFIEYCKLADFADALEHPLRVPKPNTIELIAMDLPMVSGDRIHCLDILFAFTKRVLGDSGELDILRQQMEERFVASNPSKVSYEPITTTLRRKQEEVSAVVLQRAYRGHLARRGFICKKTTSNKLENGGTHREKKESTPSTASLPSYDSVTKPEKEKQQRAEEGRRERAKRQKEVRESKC

`COC(F)(F)c1nnc2cnc(-c3ccc(O[C@H](C)C(F)(F)F)cc3C)cn12` (single isomer, unassigned) [Compound 27] and `COC(F)(F)c1nnc2cnc(-c3ccc(O[C@@H](C)C(F)(F)F)cc3C)cn12` (single isomer, unassigned) [Compound 28] fall in the same range of inhibition at 1 µM: 30 to 70% for the first, 30 to 70% for the second.

First: CCOC(F)(F)c1nnc2cnc(-c3ccc(O[C@H](C)C(F)(F)F)cc3C)cn12 (single isomer, unassigned) [Compound 29]
Second: CCOC(F)(F)c1nnc2cnc(-c3ccc(O[C@@H](C)C(F)(F)F)cc3C)cn12 (single isomer, unassigned) [Compound 30]
The inhibition at 1 µM of the first is higher: greater than 70% for the first, 30 to 70% for the second.

`CO[C@H](C)c1cc(OC(F)(F)F)ccc1-c1cn2c(C(F)(F)OC)nnc2cn1` (single isomer, unassigned) [Compound 31] and `CO[C@@H](C)c1cc(OC(F)(F)F)ccc1-c1cn2c(C(F)(F)OC)nnc2cn1` (single isomer, unassigned) [Compound 32] cannot be ordered by inhibition at 1 µM: less than 30% for the first, less than 30% for the second.

`COCc1cc(OC(F)(F)F)ccc1-c1cn2c(C(F)(F)OC)nnc2cn1` [Compound 1, 3-[difluoro(methoxy)methyl]-6-[2-(methoxymethyl)-4-(trifluoromethoxy)phenyl]-[1,2,4]triazolo[4,3-a]pyrazine] and `CCOC(F)(F)c1nnc2cnc(-c3ccc(OC(F)(F)F)cc3COC)cn12` [Compound 19, 3-[ethoxy (difluoro)methyl]-6-[2-(methoxymethyl)-4-(trifluoromethoxy)phenyl]-[1,2,4] triazolo [4,3-a] pyrazine] cannot be ordered by inhibition at 1 µM: greater than 70% for the first, greater than 70% for the second.

`COC(F)(F)c1nnc2cnc(-c3ccc(OC(F)(F)F)cc3C)cn12` [Compound 2, 3-[difluoro(methoxy)methyl]-6-[2-methyl-4-(trifluoromethoxy)phenyl]-[1,2,4]triazolo[4,3-a]pyrazine] and `CCOC(F)(F)c1nnc2cnc(-c3ccc(OC(F)(F)F)cc3C)cn12` [Compound 4, 3-[ethoxy(difluoro)methyl]-6-[2-methyl-4-(trifluoromethoxy)phenyl]-[1,2,4]triazolo[4,3-a]pyrazine] cannot be ordered by inhibition at 1 µM: greater than 70% for the first, greater than 70% for the second.

First: COCc1nnc2cnc(-c3ccc(OC(F)(F)F)cc3C)cn12 [Compound 3, 3-(methoxymethyl)-6-[2-methyl-4-(trifluoromethoxy)phenyl]-[1,2,4]triazolo[4,3-a]pyrazine]
Second: CCOCc1nnc2cnc(-c3ccc(OC(F)(F)F)cc3C)cn12 [Compound 5, 3-(ethoxymethyl)-6-[2-methyl-4-(trifluoromethoxy)phenyl]-[1,2,4]triazolo[4,3-a]pyrazine]
The inhibition at 1 µM of the first is lower: less than 30% for the first, 30 to 70% for the second.

First: Cc1cc(OC(F)(F)F)ccc1-c1cn2c(COCc3ccccc3)nnc2cn1 [Compound 6, 3-((benzyloxy)methyl)-6-(2-methyl-4-(trifluoromethoxy)phenyl)-[1,2,4]triazolo[4,3-a]pyrazine]
Second: Cc1cc(OC(F)(F)F)ccc1-c1cn2c(COCC(C)C)nnc2cn1 [Compound 7, 3-(isobutoxymethyl)-6-(2-methyl-4-(trifluoromethoxy)phenyl)-[1,2,4]triazolo[4,3-a]pyrazine]
The inhibition at 1 µM of the first is higher: greater than 70% for the first, 30 to 70% for the second.

Compared with `COCc1nnc2ccc(-c3ccc(OC(F)(F)F)cc3C)nn12` [Compound 8, 3-(methoxymethyl)-6-[2-methyl-4-(trifluoromethoxy)phenyl]-[1,2,4]triazolo[4,3-b]pyridazine], `CCOCc1nnc2ccc(-c3ccc(OC(F)(F)F)cc3C)nn12` [Compound 13, 3-(ethoxymethyl)-6-[2-methyl-4-(trifluoromethoxy)phenyl]-[1,2,4]triazolo[4,3-b]pyridazine] is lower in inhibition at 1 µM: 30 to 70% for the first, less than 30% for the second.

Compared with `CCOC(F)(F)c1nnc2cnc(-c3ccc(OC(F)(F)F)c(C)c3)cn12` [Compound 9, 3-[ethoxy(difluoro)methyl]-6-[3-methyl-4-(trifluoromethoxy)phenyl]-[1,2,4]triazolo[4,3-a]pyrazine], `COC(F)(F)c1nnc2cnc(-c3ccc(OC(F)(F)F)c(C)c3)cn12` [Compound 11, 3-(difluoro(methoxy)methyl)-6-(3-methyl-4-(trifluoromethoxy)phenyl)-[1,2,4]triazolo[4,3-a]pyrazine] is lower in inhibition at 1 µM: 30 to 70% for the first, less than 30% for the second.

`Cc1cc(OC(F)(F)F)ccc1-c1cn2c(C(F)(F)OC(C)C)nnc2cn1` [Compound 10, 3-(difluoro(isopropoxy)methyl)-6-(2-methyl-4-(trifluoromethoxy)phenyl)-[1,2,4]triazolo[4,3-a]pyrazine] and `Cc1cc(OC(F)(F)F)ccc1-c1cn2c(C(F)(F)OC3CC3)nnc2cn1` [Compound 12, 3-[cyclopropoxy(difluoro)methyl]-6-[2-methyl-4-(trifluoromethoxy)phenyl]-[1,2,4]triazolo[4,3-a]pyrazine] fall in the same range of inhibition at 1 µM: 30 to 70% for the first, 30 to 70% for the second.

Compared with `COC(F)(F)c1nnc2ccc(-c3ccc(OC(F)(F)F)cc3C)nn12` [Compound 14, 3-[difluoro(methoxy)methyl]-6-[2-methyl-4-(trifluoromethoxy)phenyl]-[1,2,4]triazolo[4,3-b]pyridazine], `CCOC(F)(F)c1nnc2ccc(-c3ccc(OC(F)(F)F)cc3C)nn12` [Compound 15, 3-[ethoxy(difluoro)methyl]-6-[2-methyl-4-(trifluoromethoxy)phenyl]-[1,2,4]triazolo[4,3-b]pyridazine] is lower in inhibition at 1 µM: 30 to 70% for the first, less than 30% for the second.

`Cc1cc(OC(F)(F)F)ccc1-c1cn2c(COCC3CC3)nnc2cn1` [Compound 16, 3-(cyclopropylmethoxymethyl)-6-[2-methyl-4-(trifluoromethoxy)phenyl]-[1,2,4]triazolo[4,3-a]pyrazine] and `Cc1cc(OC(F)(F)F)ccc1-c1cn2c(COC3CC3)nnc2cn1` [Compound 20, 3-(cyclopropoxymethyl)-6-[2-methyl-4-(trifluoromethoxy)phenyl]-[1,2,4]triazolo[4,3-a]pyrazine] fall in the same range of inhibition at 1 µM: 30 to 70% for the first, 30 to 70% for the second.

First: COCc1cc(OC(F)(F)F)ccc1-c1cn2c(COC)nnc2cn1 [Compound 17, 3-(methoxymethyl)-6-[2-(methoxymethyl)-4-(trifluoromethoxy)phenyl]-[1,2,4] triazolo[4,3-a]pyrazine]
Second: COC(F)(F)c1nnc2cnc(-c3ccc(OCC(F)(F)F)cc3C)cn12 [Compound 21, 3-(difluoro(methoxy)methyl)-6-(2-methyl-4-(2,2,2-trifluoroethoxy)phenyl)-[1,2,4]triazolo[4,3-a]pyrazine]
The inhibition at 1 µM of the first is lower: less than 30% for the first, 30 to 70% for the second.

Compared with `Cc1cc(OC(F)(F)F)ccc1-c1cn2c(C(F)(F)OCC3CC3)nnc2cn1` [Compound 18, 3-[cyclopropylmethoxy(difluoro)methyl]-6-[2-methyl-4-(trifluoromethoxy)phenyl]-[1,2,4]triazolo[4,3-a]pyrazine], `CCOC(F)(F)c1nnc2cnc(-c3ccc(OC(C)C)cc3C)cn12` [Compound 23, 3-(ethoxydifluoromethyl)-6-(4-isopropoxy-2-methylphenyl)-[1,2,4]triazolo[4,3-a]pyrazine] is lower in inhibition at 1 µM: greater than 70% for the first, 30 to 70% for the second.

First: COC(F)(F)c1nnc2cnc(-c3ccc(OC(C)C)cc3C)cn12 [Compound 22, 3-(difluoro(methoxy)methyl)-6-(4-isopropoxy-2-methylphenyl)-[1,2,4]triazolo [4,3-a]pyrazine]
Second: COC(F)(F)c1nnc2cnc(-c3ccc(OC(C)C)cc3)cn12 [Compound 24, 3-(difluoro(methoxy)methyl)-6-(4-isopropoxyphenyl)-[1,2,4]triazolo[4,3-a]pyrazine]
The inhibition at 1 µM of the first is lower: 30 to 70% for the first, greater than 70% for the second.
